From PubChem BioAssay (NCI) come the findings set out here.

Some test systems named below: SK-MEL-28 melanoma; MDA-MB-231 breast; NCI-H522 lung; HOP-62 NSCLC; ACHN renal; RXF 393 renal; EKVX NSCLC; TK-10 renal; UO-31 renal; SK-MEL-2 melanoma.
Common to all, as to experiment: NCI anticancer screen, dose series, 48 h

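96-well plates; 48 h exposure; 5 concentrations. Endpoints by linear interpolation between flanking doses. Not reached: highest tested concentration assigned. The concentration for 50% growth inhibition is given as GI50. TGI marks complete inhibition of growth.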

On to `CC(=O)CC(=O)Nn1c(-c2cccs2)nc2ccc(I)cc2c1=O`, for which the TGI is above 100 µM in the experiment with SK-MEL-28 melanoma; 63.7 µM in the experiment on MDA-MB-231 breast; above 87.5 µM in the experiment with NCI-H522 lung; above 100 µM with HOP-62 NSCLC; above 100 µM in the experiment on ACHN renal; above 100 µM with RXF 393 renal. The TGI is above 66.1 µM with EKVX NSCLC, above 100 µM with TK-10 renal, above 91.3 µM in the experiment on UO-31 renal and above 100 µM in the experiment on SK-MEL-2 melanoma. In the experiment with MDA-MB-231 breast, the GI50 was 16.4 µM.

For `CC(C)(Oc1ccc(C2C[C@H]2Cl)cc1)C(=O)O` (stereo partly drawn), the TGI in the experiment with SK-MEL-28 melanoma, in the experiment with MDA-MB-231 breast, in the experiment on NCI-H522 lung, with HOP-62 NSCLC, with RXF 393 renal and with EKVX NSCLC was above 100 µM in each case. For the same molecule, the TGI with TK-10 renal and in the experiment with SK-MEL-2 melanoma was above 100 µM throughout.

As to `CC(C)(C)C(=O)C(C#N)C(=O)C(C)(C)C`, the TGI in the experiment with SK-MEL-28 melanoma, in the experiment with MDA-MB-231 breast, in the experiment on NCI-H522 lung, in the experiment with HOP-62 NSCLC, with ACHN renal and in the experiment with RXF 393 renal was above 100 µM each time. Moreover, the TGI with EKVX NSCLC, in the experiment with TK-10 renal, in the experiment on UO-31 renal and in the experiment with SK-MEL-2 melanoma was above 100 µM throughout.

Turning to `CCO/C=N/C1=C(C#N)C(c2ccc(OC)c(OC)c2)c2c(-c3ccccc3)nn(-c3ccccc3)c2O1` (stereo not drawn), the TGI in the experiment with SK-MEL-28 melanoma was 29.4 µM; with MDA-MB-231 breast, 40.4 µM; in the experiment on NCI-H522 lung, 38.2 µM; in the experiment on HOP-62 NSCLC, above 100 µM; in the experiment on ACHN renal, 28.3 µM; with RXF 393 renal, 29.8 µM. For the same molecule, the results for the TGI with EKVX NSCLC, in the experiment on UO-31 renal and with SK-MEL-2 melanoma were 33.1 µM, 38.5 µM and 43.8 µM, respectively.

Consider `C=CCn1c(=O)c(-c2ccccc2)c(O)c2ccccc21`, for which the TGI in the experiment with SK-MEL-28 melanoma, in the experiment on MDA-MB-231 breast, in the experiment on NCI-H522 lung, with HOP-62 NSCLC, in the experiment on ACHN renal and with RXF 393 renal was above 100 µM throughout. The TGI with EKVX NSCLC, in the experiment with TK-10 renal and in the experiment on UO-31 renal was above 100 µM throughout.

As for `N#Cc1ccc(/C=C2\Cc3ccccc3C2=O)cc1`, the TGI in the experiment with SK-MEL-28 melanoma, with MDA-MB-231 breast, with NCI-H522 lung, in the experiment on HOP-62 NSCLC, in the experiment with ACHN renal and in the experiment on RXF 393 renal was above 100 µM each time. Moreover, the TGI in the experiment with EKVX NSCLC, with TK-10 renal and with UO-31 renal was above 100 µM throughout.

As to `COc1ccc(/C=N/NC(=O)c2ccccc2Nc2ccccc2C(=O)N/N=C/c2ccc(OC)c(OC)c2)cc1OC`, the TGI in the experiment with SK-MEL-28 melanoma is above 100 µM; in the experiment with MDA-MB-231 breast it was 89.1 µM; with HOP-62 NSCLC, above 100 µM; in the experiment on ACHN renal, above 100 µM; in the experiment with RXF 393 renal, above 100 µM; with EKVX NSCLC, above 100 µM. Further, the TGI in the experiment on TK-10 renal, in the experiment on UO-31 renal and in the experiment on SK-MEL-2 melanoma was above 100 µM each time.

As for `CC1(C)CC(=O)C2=C(C1)OC1=C(CC(C)(C)CC1=O)C2c1ccccc1Cl` (stereo not drawn), the TGI with SK-MEL-28 melanoma, with MDA-MB-231 breast, in the experiment on NCI-H522 lung, in the experiment on HOP-62 NSCLC, in the experiment on ACHN renal and in the experiment with RXF 393 renal was above 100 µM each time. For the same molecule, the TGI with EKVX NSCLC was above 100 µM; in the experiment on UO-31 renal, 3.67 µM; in the experiment with SK-MEL-2 melanoma, above 100 µM.

For the molecule `O=c1n(CCO)nc2n1CCCN2`, the TGI with SK-MEL-28 melanoma, in the experiment on MDA-MB-231 breast, in the experiment on HOP-62 NSCLC, in the experiment on ACHN renal, with RXF 393 renal and in the experiment with EKVX NSCLC was above 100 µM each time. Further, the TGI in the experiment with TK-10 renal, in the experiment on UO-31 renal and in the experiment with SK-MEL-2 melanoma was above 100 µM each time.

In the case of `N#Cc1c(C#N)c(-c2ccco2)n(/N=C/c2ccco2)c1N`, the TGI with MDA-MB-231 breast was 36.3 µM; in the experiment on NCI-H522 lung it was above 100 µM; in the experiment on HOP-62 NSCLC it was above 100 µM; with ACHN renal, above 100 µM; in the experiment with RXF 393 renal, 89.1 µM; in the experiment on EKVX NSCLC, above 100 µM. Moreover, the TGI in the experiment on TK-10 renal, with UO-31 renal and in the experiment with SK-MEL-2 melanoma was above 100 µM each time.

Turning to `COc1ccc2c(c1)CCC1C2CCC2(C)C1CC[C@@]2(O)CNC(=O)/C=C/c1ccc(O)c(O)c1` (stereo partly drawn), the GI50 was 4.33 µM with SK-MEL-28 melanoma; 2.43 µM in the experiment with MDA-MB-231 breast; 0.503 µM in the experiment on NCI-H522 lung; 5.59 µM with HOP-62 NSCLC; 2.19 µM with ACHN renal; 3.98 µM in the experiment with RXF 393 renal. Further, the GI50 in the experiment with EKVX NSCLC is 4.01 µM; in the experiment on TK-10 renal it was 2.52 µM; with SK-MEL-2 melanoma, 5.59 µM. Further, the TGI in the experiment on SK-MEL-28 melanoma was determined as 31.8 µM; in the experiment with MDA-MB-231 breast, 10 µM; in the experiment with NCI-H522 lung it was 2.19 µM; in the experiment with HOP-62 NSCLC it was 79.1 µM; in the experiment with ACHN renal, 7.16 µM; in the experiment on RXF 393 renal it was 16.7 µM. The TGI in the experiment on EKVX NSCLC is above 100 µM; with TK-10 renal, 9.81 µM; in the experiment on SK-MEL-2 melanoma, 29.7 µM.

Turning to `Clc1ccc(CCn2ccc3ccccc32)c(Cl)c1`, the TGI with MDA-MB-231 breast, in the experiment on NCI-H522 lung, in the experiment with HOP-62 NSCLC, in the experiment on ACHN renal, in the experiment on RXF 393 renal and in the experiment with EKVX NSCLC was above 100 µM throughout. Also, the TGI with TK-10 renal, in the experiment on UO-31 renal and with SK-MEL-2 melanoma was above 100 µM in each case.

With `CC1=CC(=O)C[C@]2(C)[C@@H](O)CC(C(C)CO)C[C@@H]12` (stereo partly drawn), the TGI in the experiment on SK-MEL-28 melanoma, with MDA-MB-231 breast, in the experiment on HOP-62 NSCLC, in the experiment with ACHN renal, in the experiment with RXF 393 renal and in the experiment on EKVX NSCLC was above 100 µM throughout. Besides, the TGI in the experiment on TK-10 renal, in the experiment on UO-31 renal and in the experiment on SK-MEL-2 melanoma was above 100 µM throughout.
